Laboratory results as given in ChEMBL document CHEMBL4251612, “Naturally occurring Diels-Alder-type adducts from Morus nigra as potent inhibitors of Mycobacterium tuberculosis protein tyrosine phosphatase B” (Eur J Med Chem, 2018).
pIC50, pKd, pKi: −log10 of the molar value. ≈ marks a conversion by molar mass, not a printed value. Calls of active or inactive are those of the source. No cut-off for these calls is given here.

Legend:
[1] = target: T1, Phosphotyrosine protein phosphatase (Mycobacterium tuberculosis, UniProt A0A045ISB3); assay: Binding affinity to Mycobacterium tuberculosis PtpB by fluorescence based assay
T1 sequence (A0A045ISB3 whole entry): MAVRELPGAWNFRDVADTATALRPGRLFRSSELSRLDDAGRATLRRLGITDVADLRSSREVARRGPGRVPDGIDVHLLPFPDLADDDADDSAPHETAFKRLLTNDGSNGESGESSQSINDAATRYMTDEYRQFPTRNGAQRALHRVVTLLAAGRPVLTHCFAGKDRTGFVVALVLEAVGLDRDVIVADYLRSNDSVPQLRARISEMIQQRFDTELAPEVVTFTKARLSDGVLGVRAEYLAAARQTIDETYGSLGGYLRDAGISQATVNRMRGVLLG

[2] = test system: Mycobacterium tuberculosis; assay: Antitubercular activity against Mycobacterium tuberculosis H37Ra ATCC 25177 after 7 days by resazurin microtiter assay; assay type: functional; conditions: H37Ra ATCC 25177, 168 h
[3] = target: T2, Tyrosine-protein phosphatase non-receptor type 1 (Homo sapiens, UniProt P18031); assay: Inhibition of human PTP1B using p-nitrophenyl phosphate as substrate preincubated for 10 mins followed by substrate addition measured every minute for 10 mins by UV-VIS spectrophotometric analysis
T2 sequence (P18031 whole entry): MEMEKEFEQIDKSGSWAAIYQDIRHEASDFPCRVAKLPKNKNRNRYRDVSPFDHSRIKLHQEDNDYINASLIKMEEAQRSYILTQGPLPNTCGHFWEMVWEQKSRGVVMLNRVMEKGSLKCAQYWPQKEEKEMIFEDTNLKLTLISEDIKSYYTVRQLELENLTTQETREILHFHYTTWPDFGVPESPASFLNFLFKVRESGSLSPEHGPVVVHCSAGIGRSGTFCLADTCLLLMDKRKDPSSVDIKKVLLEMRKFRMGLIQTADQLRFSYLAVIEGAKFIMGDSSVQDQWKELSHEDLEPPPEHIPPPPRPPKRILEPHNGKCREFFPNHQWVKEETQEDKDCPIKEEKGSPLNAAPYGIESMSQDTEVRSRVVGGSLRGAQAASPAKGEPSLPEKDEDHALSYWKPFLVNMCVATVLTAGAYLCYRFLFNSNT

[4] = target: T3, Phosphotyrosine protein phosphatase (Mycobacterium tuberculosis) (UniProt A0A045ISB3); assay: Binding affinity to Mycobacterium tuberculosis PtpB assessed as sequence coverage level at 100 uM preincubated for 10 mins before trypsin addition by mass spectrometry based peptide mass fingerprint assay (reference value: 92%)
T3 sequence (whole entry): T1 sequence (A0A045ISB3 whole entry)

[5] = test system: Mycobacterium tuberculosis; assay: Antitubercular activity against Mycobacterium tuberculosis H37Ra ATCC 25177 infected in human THP1 cells assessed as reduction in CFU at 13.2 uM after 72 hrs; assay type: functional, organism-based
[6] = target: T3, Phosphotyrosine protein phosphatase (Mycobacterium tuberculosis); assay: Competitive inhibition of Mycobacterium tuberculosis PtpB using p-nitrophenyl phosphate as substrate up to 0.3 uM preincubated for 10 mins followed by substrate addition measured every minute for 10 mins by Michaelis-Menten plot analysis
[7] = target: T3, Phosphotyrosine protein phosphatase (Mycobacterium tuberculosis); assay: Binding affinity to Mycobacterium tuberculosis PtpB assessed as fluorescence quenching at 0.1 to 3.8 uM by spectropolarimetry
[8] = target: T3, Phosphotyrosine protein phosphatase (Mycobacterium tuberculosis); assay: Binding affinity to Mycobacterium tuberculosis PtpB assessed as protection against proteolytic cleavage at 100 to 400 uM preincubated for 10 mins before trypsin addition by mass spectrometry
[9] = target: T3, Phosphotyrosine protein phosphatase (Mycobacterium tuberculosis); assay: Reversible inhibition of Mycobacterium tuberculosis PtpB using p-nitrophenyl phosphate as substrate assessed as enzyme recovery at 10 times IC50 preincubated for 10 mins followed by 100-fold dilution; parameters: scale not given: the % may be the effect or the level left
[10] = target: T3, Phosphotyrosine protein phosphatase (Mycobacterium tuberculosis); assay: Time independent inhibition of Mycobacterium tuberculosis PtpB at 0.2 uM pre-incubated for 0 to 10 mins before p-nitrophenyl phosphate substrate addition
[11] = target: T4, Low molecular weight protein-tyrosine phosphatase A (Mycobacterium tuberculosis, UniProt P9WIA1); assay: Inhibition of Mycobacterium tuberculosis PtpA using p-nitrophenyl phosphate as substrate preincubated for 10 mins followed by substrate addition measured every minute for 10 mins by UV-VIS spectrophotometric analysis
T4 sequence (P9WIA1 whole entry): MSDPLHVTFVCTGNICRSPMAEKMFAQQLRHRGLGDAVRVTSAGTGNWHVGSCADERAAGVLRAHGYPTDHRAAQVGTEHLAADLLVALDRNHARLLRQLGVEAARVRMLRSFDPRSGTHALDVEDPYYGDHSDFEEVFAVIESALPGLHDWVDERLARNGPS

[12] = target: T5, Tyrosine-protein phosphatase non-receptor type 12 (Homo sapiens, UniProt Q05209); assay: Inhibition of PTP-PEST (unknown origin) using p-nitrophenyl phosphate as substrate preincubated for 10 mins followed by substrate addition measured every minute for 10 mins by UV-VIS spectrophotometric analysis
T5 sequence (Q05209 whole entry): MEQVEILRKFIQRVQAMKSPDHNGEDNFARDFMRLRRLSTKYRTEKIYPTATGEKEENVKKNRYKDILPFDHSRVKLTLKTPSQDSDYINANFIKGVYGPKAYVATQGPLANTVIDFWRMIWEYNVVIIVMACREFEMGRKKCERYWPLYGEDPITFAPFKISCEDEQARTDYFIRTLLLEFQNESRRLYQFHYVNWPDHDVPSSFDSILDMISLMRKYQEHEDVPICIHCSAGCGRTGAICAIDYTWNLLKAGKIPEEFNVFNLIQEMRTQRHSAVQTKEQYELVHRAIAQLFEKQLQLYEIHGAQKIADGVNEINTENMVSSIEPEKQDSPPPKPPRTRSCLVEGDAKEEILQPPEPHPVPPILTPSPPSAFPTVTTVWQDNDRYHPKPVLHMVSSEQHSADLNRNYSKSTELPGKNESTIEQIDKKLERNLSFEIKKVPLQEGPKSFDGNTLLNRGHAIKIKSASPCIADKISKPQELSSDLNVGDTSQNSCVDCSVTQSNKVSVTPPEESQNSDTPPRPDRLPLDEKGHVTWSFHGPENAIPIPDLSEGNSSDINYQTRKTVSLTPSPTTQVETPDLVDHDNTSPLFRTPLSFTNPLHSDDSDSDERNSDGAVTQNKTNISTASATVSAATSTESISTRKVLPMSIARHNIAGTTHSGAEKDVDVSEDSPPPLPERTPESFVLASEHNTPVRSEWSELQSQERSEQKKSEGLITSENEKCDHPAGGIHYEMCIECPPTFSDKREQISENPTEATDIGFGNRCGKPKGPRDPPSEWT

[13] = target: T1, Phosphotyrosine protein phosphatase; assay: Binding affinity to Mycobacterium tuberculosis PtpB by UV-VIS spectrophotometric analysis
[14] = target: T3, Phosphotyrosine protein phosphatase (Mycobacterium tuberculosis); assay: Binding affinity to Mycobacterium tuberculosis PtpB assessed as binding constant by fluorescence based assay
[15] = target: T1, Phosphotyrosine protein phosphatase; assay: Inhibition of Mycobacterium tuberculosis PtpB using p-nitrophenyl phosphate as substrate preincubated for 10 mins followed by substrate addition measured every minute for 10 mins by UV-VIS spectrophotometric analysis
[16] = Cytotoxicity against human THP1 cells after 72 hrs by MTT assay; assay type: cell-based; conditions: THP-1 cells
[17] = target: T1, Phosphotyrosine protein phosphatase; assay: Inhibition of Mycobacterium tuberculosis PtpB using p-nitrophenyl phosphate as substrate preincubated for 10 mins followed by substrate addition measured every minute for 10 mins by Michaelis-Menten plot analysis
[18] = target: T6, Tyrosine-protein phosphatase non-receptor type 22 (Homo sapiens, UniProt Q9Y2R2); assay: Inhibition of LYP (unknown origin) using p-nitrophenyl phosphate as substrate preincubated for 10 mins followed by substrate addition measured every minute for 10 mins by UV-VIS spectrophotometric analysis
T6 sequence (Q9Y2R2 whole entry): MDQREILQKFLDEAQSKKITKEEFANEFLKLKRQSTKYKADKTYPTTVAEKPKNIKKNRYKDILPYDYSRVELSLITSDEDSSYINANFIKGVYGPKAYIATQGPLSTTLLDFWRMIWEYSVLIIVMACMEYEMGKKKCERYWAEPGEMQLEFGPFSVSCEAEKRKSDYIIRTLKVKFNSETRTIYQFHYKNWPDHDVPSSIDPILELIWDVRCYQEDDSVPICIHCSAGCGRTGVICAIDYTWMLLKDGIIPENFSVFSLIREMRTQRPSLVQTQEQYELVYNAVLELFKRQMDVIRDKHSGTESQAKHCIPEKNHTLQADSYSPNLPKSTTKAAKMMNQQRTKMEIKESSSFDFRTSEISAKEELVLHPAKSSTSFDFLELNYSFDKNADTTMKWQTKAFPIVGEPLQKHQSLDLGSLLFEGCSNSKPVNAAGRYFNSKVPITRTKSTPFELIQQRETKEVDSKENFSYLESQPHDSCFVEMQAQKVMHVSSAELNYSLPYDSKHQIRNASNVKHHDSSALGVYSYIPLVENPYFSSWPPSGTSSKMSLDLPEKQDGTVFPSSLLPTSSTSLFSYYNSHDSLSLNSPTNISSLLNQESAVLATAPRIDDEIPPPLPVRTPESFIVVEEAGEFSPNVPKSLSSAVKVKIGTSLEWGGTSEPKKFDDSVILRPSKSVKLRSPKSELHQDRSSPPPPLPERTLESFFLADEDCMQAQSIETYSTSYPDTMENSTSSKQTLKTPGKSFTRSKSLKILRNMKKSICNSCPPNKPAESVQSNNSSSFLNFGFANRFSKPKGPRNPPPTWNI

[19] = target: T3, Phosphotyrosine protein phosphatase (Mycobacterium tuberculosis); assay: Binding affinity to Mycobacterium tuberculosis PtpB assessed as Stern-Volmer quenching constant by UV-VIS spectrophotometric analysis

SMILES	pKd [1]	MIC [2] [µg/mL]	pIC50 [3]	Activity [4] [%]	Activity [5]	inhibition [6]	Activity [7]	Activity [8]	Activity [9] [%]	inhibition [10]	pIC50 [11]	pIC50 [12]	pKd [13]	Ka [14] [×10⁶ /M]	pIC50 [15]	CC50 at 72 h [16] [µg/mL]	pKi [17]	pIC50 [18]	Ka [19] [×10⁶ /M]	pKi [15]
CC(C)=CCc1c(O)ccc(C(=O)[C@@H]2[C@@H](c3ccc(O)cc3O)CC(C)=C[C@H]2c2c(O)cc(O)c3c(=O)c(CC=C(C)C)c(-c4ccc(O)cc4O)oc23)c1O	6.07	32 (≈ 42.1 µM)	5.60	93	inactive	Active	Active	Active	40	Active	5.83	5.28	6.00	1.2	6.44	20.2 (≈ 26.6 µM)	6.70	4.93	1	
CC(C)=CCc1c(O)ccc(C(=O)[C@H]2[C@@H](c3c(O)cc(/C=C/c4ccc(O)cc4O)cc3O)C=C(C)C[C@@H]2c2ccc(O)cc2O)c1O															5.72					5.80
Oc1cc(O)cc(/C=C/c2ccc(O)cc2O)c1 [OXYRESVERATROL]			4.57								4.17	< 4.00						4.50		
CC1=C[C@@H](c2c(O)ccc([C@@H]3CC(=O)c4c(O)cc(O)cc4O3)c2O)[C@H](C(=O)c2ccc(O)cc2O)[C@@H](c2ccc(O)cc2O)C1			5.10								4.86	4.73			5.33			4.92		
